Results from patent US20240374585A1, “EPITHELIAL SODIUM CHANNEL (ENAC) INHIBITOR CONJUGATES AND METHODS FOR USE THEREOF” (Lung Therapeutics, Inc., priority 2021, published 2024).
pIC50: −log10 of the molar value. Where a SMILES comes first, the peptide text is derived from it. Where no end group is shown, it is not given here. [ ]: non-standard residue; d: D form. The star is where a group is joined. X2 = NC(=NC(=O)c1nc(Cl)c(N)nc1N)NCCCCN1C(=O)CC(*)C1=O; Aib = CC(C)(N)C(=O)O; Ahx = NCCCCCC(=O)O

Key:
ENaC = molecular target: T1, ENaC (Homo sapiens, UniProt P37088+P51168+P51170); experiment: ENaC inhibition in NHBE cell monolayers, Ussing epithelial voltage clamp (short circuit current); format: cell-based
T1 construct: Primary NHBE cells were isolated from bronchi of normal healthy patients; endogenous in cells; host or cells: primary normal human bronchial epithelial (NHBE) cells, differentiated at air-liquid interface
T1 sequence (P37088 1-669): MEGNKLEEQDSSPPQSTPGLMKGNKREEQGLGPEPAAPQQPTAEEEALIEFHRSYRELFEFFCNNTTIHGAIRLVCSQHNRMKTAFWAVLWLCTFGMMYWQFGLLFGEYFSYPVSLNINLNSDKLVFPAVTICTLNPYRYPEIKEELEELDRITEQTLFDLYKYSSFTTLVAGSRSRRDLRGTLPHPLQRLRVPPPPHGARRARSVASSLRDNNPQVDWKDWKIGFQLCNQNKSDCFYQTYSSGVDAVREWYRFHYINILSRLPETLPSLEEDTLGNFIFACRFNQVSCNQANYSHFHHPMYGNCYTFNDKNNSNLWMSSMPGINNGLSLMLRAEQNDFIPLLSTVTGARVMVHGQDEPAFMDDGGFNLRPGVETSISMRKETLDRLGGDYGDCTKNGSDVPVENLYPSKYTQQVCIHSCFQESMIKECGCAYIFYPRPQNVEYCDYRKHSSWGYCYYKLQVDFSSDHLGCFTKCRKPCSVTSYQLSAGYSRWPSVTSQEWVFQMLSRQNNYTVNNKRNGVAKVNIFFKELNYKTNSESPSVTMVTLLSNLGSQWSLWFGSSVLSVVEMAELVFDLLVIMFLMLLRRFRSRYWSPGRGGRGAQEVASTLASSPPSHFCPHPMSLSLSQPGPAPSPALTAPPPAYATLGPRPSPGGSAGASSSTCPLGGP
T1 sequence (P51168 1-640): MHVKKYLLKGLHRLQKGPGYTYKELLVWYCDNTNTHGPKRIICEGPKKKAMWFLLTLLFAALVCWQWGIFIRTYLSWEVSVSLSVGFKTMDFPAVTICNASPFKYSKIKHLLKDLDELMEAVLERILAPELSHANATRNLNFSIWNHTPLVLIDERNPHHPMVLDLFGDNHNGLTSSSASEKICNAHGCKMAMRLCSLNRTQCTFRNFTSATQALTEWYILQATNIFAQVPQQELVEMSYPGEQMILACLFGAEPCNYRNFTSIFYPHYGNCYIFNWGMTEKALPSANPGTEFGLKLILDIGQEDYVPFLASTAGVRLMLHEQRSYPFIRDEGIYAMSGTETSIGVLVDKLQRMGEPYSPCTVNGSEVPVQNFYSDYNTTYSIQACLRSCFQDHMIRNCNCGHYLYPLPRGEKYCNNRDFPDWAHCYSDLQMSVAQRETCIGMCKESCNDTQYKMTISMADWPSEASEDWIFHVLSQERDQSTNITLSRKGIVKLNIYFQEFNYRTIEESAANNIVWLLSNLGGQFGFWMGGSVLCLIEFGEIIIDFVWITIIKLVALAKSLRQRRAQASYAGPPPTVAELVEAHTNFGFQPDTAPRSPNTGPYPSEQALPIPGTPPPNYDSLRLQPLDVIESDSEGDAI
T1 sequence (P51170 1-649): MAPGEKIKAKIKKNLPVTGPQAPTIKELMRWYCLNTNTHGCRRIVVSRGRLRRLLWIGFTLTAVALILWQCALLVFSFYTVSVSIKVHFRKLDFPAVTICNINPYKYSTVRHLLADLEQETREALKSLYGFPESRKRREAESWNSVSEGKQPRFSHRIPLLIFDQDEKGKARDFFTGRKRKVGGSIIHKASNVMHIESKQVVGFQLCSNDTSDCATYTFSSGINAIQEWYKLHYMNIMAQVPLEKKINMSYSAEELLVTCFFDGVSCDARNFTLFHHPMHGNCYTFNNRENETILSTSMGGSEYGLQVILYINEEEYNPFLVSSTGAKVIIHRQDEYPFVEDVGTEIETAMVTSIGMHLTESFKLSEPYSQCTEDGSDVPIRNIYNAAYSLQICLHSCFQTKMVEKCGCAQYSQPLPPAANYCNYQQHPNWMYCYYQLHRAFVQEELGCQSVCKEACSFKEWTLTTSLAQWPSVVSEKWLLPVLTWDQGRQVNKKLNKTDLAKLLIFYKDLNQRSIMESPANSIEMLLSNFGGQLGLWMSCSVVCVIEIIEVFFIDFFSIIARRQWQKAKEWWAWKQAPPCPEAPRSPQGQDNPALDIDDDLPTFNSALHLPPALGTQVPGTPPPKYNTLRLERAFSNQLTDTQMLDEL
Description: The objective of this study was to measure the ability of the illustrative conjugates to modulate ion transport function of ENAC in normal human bronchial epithelial (NHBE) cell monolayers. Sodium transport function of ENAC expressed in NHBE monolayers was evaluated using an Ussing epithelial voltage clamp apparatus. See, Hirsh et al., J. Pharmacol. Exp. Ther. 2008; 325:77-88, hereby incorporated by reference in its entirety.
Primary NHBE cells were isolated from bronchi of normal healthy patients, expanded in Lonza media (BEGM™ BulletKit™), and plated on Snapwell™ filters to form an epithelium. Cells on Snapwell™ inserts were grown for at least 21 days in Vertex Differentiation media and exposed to an air-liquid interface to promote differentiation. At least one day before the assay, mucous overlaying the apical surface was removed from the inserts by incubating the apical surface for about 30 minutes with ≥200 μL of differentiation media followed by aspiration of the mucous film and media.
The NHBE cell monolayers grown on Snapwell™ filter inserts were transferred to Physiologic Instruments Ussing recording chambers (Physiologic Instruments, Inc., San Diego, CA) and superfused with HB-PS. One or more 6-channel or 8-channel Physiologic Instruments VCC MC6 or VCC MC8 epithelial voltage clamps were used in combination to record short circuit current (ISC) from up to 24 inserts simultaneously. Air was used to operate the bubble lifts to rapidly circulate solutions in each Ussing chamber half and to aerate the monolayers.
Inserts were voltage clamped at 0 m V to record the ISC. Bumetanide (20 μM) was added to the basolateral side of all inserts. Test conjugates prepared as DMSO (Sigma-Aldrich) stocks were added cumulatively and sequentially to the apical Ussing chamber halves with at least 3 minutes between each addition.
Time and volume matched additions of DMSO to the basolateral side of the test conjugate treated inserts and both sides of the vehicle treated inserts was made to maintain osmotic balance across the epithelia. Transepithelial resistance was monitored with small voltage steps. The assay was performed at 35±2° C.
ENaC current at each test conjugate concentration was calculated as the peak current change produced by each test conjugate treated insert minus the mean current change produced by the corresponding DMSO additions to time-matched vehicle controls inserts. Cumulative difference data was fit to a Hill equation of the form: […]
Where IEnaC is the ISC peak difference current measured at each test conjugate concentration [Test].

[1] = tested on: sheep model of cystic fibrosis; experiment: Tracheal mucous velocity (TMV) in sheep model of cystic fibrosis; format: in vivo
Description: The conjugates of the present invention were tested for their ability to increase lung mucociliary clearance in a sheep model of cystic fibrosis.
The peptide conjugates of the present invention were tested in vivo using a sheep model of cystic fibrosis as described in Scott et al., Am J. Resp. Crit. Care Med., 2017; 196 (6): 734-744; and Sabater et al., PLOS ONE, 2019; 14 (11): e0224764, hereby incorporated by reference in their entirety.
Briefly, tracheal mucous velocity (TMV) was determined in sheep by insufflation of radio-opaque Teflon disks into the trachea and measuring the movement of the disks over a 1 minute period by scintigraphy.
Intubated sheep were treated with the CFTR inhibitor INH-172 by nebulization, which caused a reduction in the mucus transport rate in the trachea. Once a baseline inhibited TMV was obtained at 4 hours following CFTR inhibition, then ENaC inhibitor conjugate (Conj. 13) or control was nebulized into the sheep lung and TMV measurements were repeated hourly.

neutrophil elastase = molecular target: T2, neutrophil elastase (Homo sapiens, UniProt P08246)
T2 sequence (P08246 30-267): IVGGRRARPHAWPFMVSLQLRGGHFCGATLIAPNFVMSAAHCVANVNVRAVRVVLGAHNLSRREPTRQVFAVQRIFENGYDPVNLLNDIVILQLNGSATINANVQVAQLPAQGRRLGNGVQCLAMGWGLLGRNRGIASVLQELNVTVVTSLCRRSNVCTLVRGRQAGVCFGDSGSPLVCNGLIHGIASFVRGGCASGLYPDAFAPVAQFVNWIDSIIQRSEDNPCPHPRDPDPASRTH
Description: Experiments were therefore performed to determine the stability of the conjugates to protease cleavage.
The conjugates of the invention were incubated in PBS or PBS and 0.1 mg neutrophil elastase for 60 minutes at 37° C. The conjugates were then run on HPLC to determine their stability against protease cleavage.

Row | Compound | pIC50 (ENaC) | fold better than SPX-101 at restoring TMV in vivo ([1]; 0.25 mg/kg vs SPX-101 2 mg/kg) | restoration of TMV ([1]; nebulized 0.125, 0.25 and 0.5 mg/kg after CFTR inhibitor INH-172, vs 0.9% saline, FIG. 5) | dose needed to restore TMV ([1]; nebulized, sheep) [mg/kg] | period over which restoration of TMV was sustained ([1]; nebulized, sheep, vs 0.9% saline) [h] | susceptibility to cleavage by neutrophil elastase (neutrophil elastase)
1 | CC(=O)N[C@@H](CSC1CC(=O)N(CCCCNC(N)=NC(=O)c2nc(Cl)c(N)nc2N)C1=O)C(=O)NCCCCCC(=O)N[C@@H](C)C(=O)N[C@@H](CO)C(=O)N[C@@H](Cc1c[nH]cn1)C(=O)N[C@@H](CC(C)C)C(=O)N[C@@H](CCCNC(=N)N)C(=O)N[C@@H](CCCCN)C(=O)N[C@@H](CC(C)C)C(=O)N[C@@H](CCCNC(=N)N)C(=O)N[C@@H](CCCCN)C(=O)N[C@@H](CCCNC(=N)N)C(=O)N[C@@H](CC(C)C)C(=O)N[C@@H](CC(C)C)C(N)=O (stereo partly drawn) [Conjugate 11] (Ac-C(X2)[Ahx]ASHLRKLRKRLL-NH2) | 7.15 |  |  |  |  | 
2 | Ac-(AmilCC1)-K-(Aib)-SHLRKLRKRLL-NH2 (K[Aib]SHLRKLRKRLL-NH2; not fully specified (N-terminus); printed as Ac-(AmilCC1)-K-(Aib)-SHLRKLRKRLL-NH2; also: amiloride click conjugate (AmilCC1) at residue 1) [Conjugate 13] |  | approximately 8 fold | dose-dependent restoration of TMV | 0.25 | 8 | drastically reduced susceptibility to cleavage by neutrophil elastase
